For assay [1], the system named is human breast adenocarcinoma cell line (MCF7). Nature of the assay: MTT cell viability assay, MCF7. In kind it is cell-based. To be noted: max 100 µM, mean ± SD. As for the experimental part:
(§1) Cell lines from the American Type Culture Collection (ATCC) were used to test the human breast adenocarcinoma cell line (MCF7), rat glial tumor (C6), healthy mouse fibroblast cell line (L929), and colon cancer (HT29). Cells were combined with solutions of 1% penicillin (Sigma Aldrich), 10% fetal bovine serum (FBS; Sigma Aldrich), and 89% DMEM (Dulbecco's modified Eagle's medium; Gibco, Thermo Fisher Scientific). The cells were incubated at 37°C with 95% humidity and 5% CO2 to allow the medium to develop.
(§2) All compounds were examined for their cytotoxic effects on the L929, HT29, MCF7, and C6 cell lines using MTT assay. Approximately 1 × 10^4 cells were seeded in each well. Cells were allowed to adhere for 24 h and then the syntheses were applied at different concentrations. All syntheses were run in three repetitions. Wells with a maximum of 100 µM product were incubated for 24 h. Cisplatin was used as the positive control, and all wells devoid of specimens served as negative controls. To identify metabolically active cells, the wells were incubated for 3 h at 37°C after being treated with MTT solution. Following the MTT interaction, DMSO solution was added to the wells after they had been drained. This solution was used to dissolve the formazan crystals, and a color shift indicated how many live cells were present in each well.

Assay [2] relates to L929 (healthy mouse fibroblast cell line). Nature of the assay: MTT cell viability assay, L929. The class given is cell-based. To be noted: max 100 µM, mean ± SD. As for the experimental part:
as §1, §2
In general terms: Tetrazolium dyes change colour on reduction, which living cells bring about.

Assay [3] has as its system CA IX enzyme. Description: Carbonic anhydrase IX inhibition assay (ELISA kit, CA IX protein level). The class given is biochemical, human. Particulars: for Concentration (CA IX protein level, ELISA): ELISA kit, Control 250,225, lower = stronger inhibition, p < 0.001; for Concantration hCA IX: supplement table, same ELISA values. The procedure: The CA IX inhibitor acetazolamide was used as a positive control.
CA‐IX level was measured using the DCA900, R&D Systems ELISA Kit. In brief, 100 μL samples were incubated with 50 μL assay buffer for 2 h at room temperature (RT) in a 96‐well plate. The well was then washed four times with 400 µL wash buffer. After 200 µL of a conjugate buffer incubated at room temperature for 2 hours, the plate was washed four times with wash buffer. It was then incubated with 200 µL of substrate buffer for 30 min at room temperature. After washing, 50 µL of the stop solution was used to terminate the reaction. The plate was read at 450 nm using an Epoch™ microplate spectrophotometer (BioTek). The concentration of CA IX protein in each sample was calculated using a standard curve.

For assay [4], the system named is HT29 (colon cancer). Nature of the assay: MTT cell viability assay, HT29. The class given is cell-based. Particulars: max 100 µM, mean ± SD. The procedure:
as §1, §2

Assay [5] has as its system rat glial tumor (C6). Description: MTT cell viability assay, C6. In kind it is cell-based. To be noted: 24 h incubation, max 100 µM, mean ± SD. The procedure: as §1, §2
The subject of assay [6] is BAX. Nature of the assay: RT-PCR expression profile, BAX in C6. Particulars: C6 cell lines, effective dose, 24 h, vs control group, p < 0.05. In kind it is cell-based, rat. As for the experimental part:
(§3) Total RNA was first isolated from the cells to which effective doses of compounds 3d and/or 3j were applied at the 24th hour, by the kit protocols, and then cDNA was synthesized from this total RNA. The expression profiles of Caspase 3, BAX, and BCL‐2 genes from the cDNA samples obtained were analyzed with the RT‐PCR device by the kit protocol. Statistical analysis of the data with the ΔΔCT method was performed using the “RT2 profiler RT‐PCR Array Data Analysis version 3.5” (http://pcrdataanalysissabiosciences.com/pcr/arrayanalysis.php) software.

Assay [7] concerns Ki67. Nature of the assay: Immunofluorescent microscope analysis, Ki67 in MCF7. The class given is cell-based, human. To be noted: MCF7 cell line, compared with the cisplatin-treated group. As for the experimental part:
(§4) Immunofluorescent microscope analysis was performed as in the previous study.^[ [33] ^]

Assay [8] concerns Caspase 3. Description: RT-PCR expression profile, Caspase 3 in C6. In kind it is cell-based, rat. To be noted: C6 cell lines, effective dose, 24 h, vs control group, p < 0.05. As for the experimental part: as §3
In assay [9] the test system is Ki67. Description: Immunofluorescent microscope analysis, Ki67 in L929. In kind it is cell-based, mouse. Particulars: L929 cell line, compared with the cisplatin-treated group. As for the experimental part: as §4
In assay [10] the test system is BAX. Nature of the assay: RT-PCR expression profile, BAX in HT29. The class given is cell-based. Particulars: HT29 cell lines, effective dose, 24 h, vs control group, p < 0.05. As for the experimental part:
as §3

The subject of assay [11] is Ki67. Nature of the assay: Immunofluorescent microscope analysis, Ki67 in HT29. The class given is cell-based. Particulars: HT29 cell line, compared with the cisplatin-treated group. As for the experimental part: as §4
Assay [12] relates to BAX. Description: RT-PCR expression profile, BAX in MCF7. In kind it is cell-based, human. To be noted: MCF7 cell lines, effective dose, 24 h, vs control group, p < 0.05. The procedure:
as §3

Assay [13] concerns Ki67. Nature of the assay: Immunofluorescent microscope analysis, Ki67 in C6. In kind it is cell-based, rat. Particulars: C6 cell line, compared with the cisplatin-treated group. The procedure:
as §4

The test system of assay [14] is BAX. Nature of the assay: RT-PCR expression profile, BAX in L929. To be noted: L929 cell lines, effective dose, 24 h, vs control group, p < 0.05. In kind it is cell-based, mouse. The procedure: as §3
The mark [15] stands for this setting: Homo sapiens, MCF7, 24 h incubation.
The mark [16] stands for this setting: Mus musculus, L929, 24 h incubation.
[17] abbreviates: Homo sapiens, HT-29, 24 h incubation.

For orientation: IC50 means the concentration needed to halve the response being measured.

Some results are limits rather than exact numbers.

On to “4‐(5‐Cyano‐1H‐benzo[d]imidazol‐2‐yl)‐N′‐[(imidazol‐2‐yl)methylene]benzohydrazide [Compound 3f]”, for which the half-maximal inhibitory concentration (IC50) in assay [1] (24 h incubation), in [2] (24 h incubation), in assay [4] (24 h incubation) and in [5] was over 100 µM each time. Besides, the “Concentration (CA IX protein level, ELISA)” value (shortened to “Concentration”) in [3] was 93,975 pg/mL. Also, the “Concantration hCA IX” value in [3] is reported as 93,975 pg/ml.
In the case of `N.N.[Cl][Pt][Cl]` [Cisplatin, reference compound], the IC50 amounted to 29.6 ± 7.6 µM in [1] (24 h incubation), 88.8 ± 6.4 µM in assay [2] (24 h incubation), 59.4 ± 12.6 µM in assay [4] (24 h incubation) and 39.4 ± 6.4 µM in [5].
For the compound `N#Cc1ccc2[nH]c(-c3ccc(C(=O)NN=Cc4ccco4)cc3)nc2c1` [Compound 3a, 4‐(5‐Cyano‐1H‐benzo[d]imidazol‐2‐yl)‐N′‐[(furan‐2‐yl)methylene]benzohydrazide], the IC50 in assay [1] (setting [15]) came to 86.4 ± 1.28 µM; in assay [2] (setting [16]) it was 84.6 ± 9.6 µM; in assay [4] (setting [17]), 71.8 ± 3.68 µM; in assay [5] (Rattus norvegicus), 98.9 ± 7.94 µM.
For the compound `Cc1ccc(C=NNC(=O)c2ccc(-c3nc4cc(C#N)ccc4[nH]3)cc2)o1` [Compound 3b, 4‐(5‐Cyano‐1H‐benzo[d]imidazol‐2‐yl)‐N′‐[(5‐methylfuran‐2‐yl)methylene]benzohydrazide], the IC50 was 88.4 ± 2.18 µM in assay [1] (setting [15]), over 100 µM in assay [2] (setting [16]), 89.6 ± 5.74 µM in [4] (setting [17]) and over 100 µM in [5] (Rattus norvegicus). Besides, the “Concentration” value in assay [3] is 175,225 pg/mL. Also, the “Concantration hCA IX” value in assay [3] is listed as 175,225 pg/ml.
With `N#Cc1ccc2[nH]c(-c3ccc(C(=O)NN=Cc4ccc([N+](=O)[O-])o4)cc3)nc2c1` [Compound 3c, 4‐(5‐Cyano‐1H‐benzo[d]imidazol‐2‐yl)‐N′‐[(5‐nitrofuran‐2‐yl)methylene]benzohydrazide], the IC50 was over 100 µM in [1] (setting [15]), over 100 µM in assay [2] (setting [16]), 90.6 ± 12.1 µM in assay [4] (setting [17]) and over 100 µM in assay [5] (Rattus norvegicus). Further, the “Concentration” value in assay [3] is reported as 150,225 pg/mL. For the same compound, the “Concantration hCA IX” value in [3] is given as 150,225 pg/ml.
As to `Cc1ccsc1C=NNC(=O)c1ccc(-c2nc3cc(C#N)ccc3[nH]2)cc1` [Compound 3d, 4‐(5‐Cyano‐1H‐benzo[d]imidazol‐2‐yl)‐N′‐[(3‐methylthiophen‐2‐yl)methylene]benzohydrazide], the BAX expression increase in assay [6] is 4.06 times; in assay [10], 6.59 times; in [12], 12.55 times. Also, the IC50 in assay [1] (setting [15]) was 25.6 ± 16.4 µM; in [2] (setting [16]), over 100 µM; in [4] (setting [17]) it was 39.1 ± 8.28 µM; in assay [5] (Rattus norvegicus), 20.5 ± 8.34 µM. Also, the Ki67 immunolocalisation rate result in assay [7], in assay [9], in assay [11] and in assay [13] was “significantly decreased” in each case. The “Concentration” value in assay [3] was 83,975 pg/mL. Moreover, in assay [3], the “Concantration hCA IX” value is 83,975 pg/ml. Also, the “Caspase 3 expression increase” value in [8] is 2.75 times.
Regarding `N#Cc1ccc2[nH]c(-c3ccc(C(=O)NN=Cc4ccncc4)cc3)nc2c1` [Compound 3e, 4‐(5‐Cyano‐1H‐benzo[d]imidazol‐2‐yl)‐N′‐[(pyridine‐4‐yl)methylene]benzohydrazide], the IC50 in assay [1] (setting [15]), in [2] (setting [16]), in assay [4] (setting [17]) and in assay [5] (Rattus norvegicus) was over 100 µM in each case. For the same compound, the “Concentration” value in assay [3] was 120,225 pg/mL. The “Concantration hCA IX” value in assay [3] was 120,225 pg/ml.
For the compound `N#Cc1ccc2[nH]c(-c3ccc(C(=O)NN=Cc4cccs4)cc3)nc2c1` [Compound 3g, 4‐(5‐Cyano‐1H‐benzo[d]imidazol‐2‐yl)‐N′‐[(thiophen‐2‐yl)methylene]benzohydrazide], the IC50 in [1] (setting [15]), in assay [2] (setting [16]), in [4] (setting [17]) and in [5] (Rattus norvegicus) was over 100 µM each time. Also, the “Concentration” value in [3] is reported as 95,745 pg/mL. The “Concantration hCA IX” value in assay [3] is 95,745 pg/ml.
Take `N#Cc1ccc2[nH]c(-c3ccc(C(=O)NN=Cc4cccnc4)cc3)nc2c1` [Compound 3h, 4‐(5‐Cyano‐1H‐benzo[d]imidazol‐2‐yl)‐N′‐[(pyridine‐3‐yl)methylene]benzohydrazide]: the IC50 in assay [1] (setting [15]), in assay [2] (setting [16]), in assay [4] (setting [17]) and in assay [5] (Rattus norvegicus) was over 100 µM in each case. In [3], the “Concentration” value was 119,425 pg/mL. The “Concantration hCA IX” value in assay [3] is listed as 119,425 pg/ml.
On to `N#Cc1ccc2[nH]c(-c3ccc(C(=O)NN=Cc4ccc([N+](=O)[O-])s4)cc3)nc2c1` [Compound 3i, 4‐(5‐Cyano‐1H‐benzo[d]imidazol‐2‐yl)‐N′‐[(5‐nitrothiophen‐2‐yl)methylene]benzohydrazide], for which the IC50 in assay [1] (setting [15]), in [2] (setting [16]), in assay [4] (setting [17]) and in [5] (Rattus norvegicus) was over 100 µM each time. The “Concentration” value in assay [3] is 92,225 pg/mL. For the same compound, the “Concantration hCA IX” value in assay [3] is 92,225 pg/ml.
Consider `Cc1ccc(C=NNC(=O)c2ccc(-c3nc4cc(C#N)ccc4[nH]3)cc2)s1` [Compound 3j, 4‐(5‐Cyano‐1H‐benzo[d]imidazol‐2‐yl)‐N′‐[(5‐methylthiophen‐2‐yl)methylene]benzohydrazide], for which the concentration for half-maximal inhibition (IC50) in [1] (setting [15]) was over 100 µM; in assay [2] (setting [16]), over 100 µM; in assay [4] (setting [17]) it was 45.8 ± 15.6 µM; in [5] (Rattus norvegicus), over 100 µM. Further, the “Concentration” value in assay [3] is recorded as 82,745 pg/mL. In addition, the “Concantration hCA IX” value in [3] is recorded as 82,745 pg/ml. Further, the Ki67 immunolocalisation rate entry in assay [9] and in assay [11] was “significantly decreased” throughout. For the same compound, the BAX expression increase in assay [14] stood at 105.7 times; in assay [10], 3.07 times.

Values taken from article PMC11931356, “New benzimidazole derivatives containing hydrazone group as anticancer agents: Inhibition of carbonic anhydrase IX and molecular docking studies” (Archiv Der Pharmazie, 2025).
